Laboratory results: the supplement of paper PMC10307832

How the values were obtained:
Test in all cases: relative viability (nuclei count vs DMSO), 5 days (fraction); higher = more cells survive
PC-14 = test system: PC-14
Outline: (§1)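 Dosing by pin tool came one day after lung cancer cell lines were seeded in 1536-well plates, using either one drug or a fixed anchor-drug dose plus five library-drug doses (not always all listed) in √10 steps. After 5 days, nuclei were counted on 4× images. Relative viability is treated-well nuclei count divided by vehicle-well nuclei count, and values are medians of duplicate plates.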

HCC-366 = test system: HCC-366
Outline: as §1

NCI-H647 = test system: NCI-H647
Outline: as §1

EMC-BAC-2 = test system: EMC-BAC-2
Outline: as §1

NCI-H460 = test system: NCI-H460
Outline: as §1

NCI-H522 = test system: NCI-H522
Outline: as §1

A-427 = test system: A-427
Outline: as §1

NCI-H2405 = test system: NCI-H2405
Outline: as §1

NCI-H1734 = test system: NCI-H1734
Outline: as §1

SK-MES-1 = test system: SK-MES-1
Outline: as §1

COR-L23 = test system: COR-L23
Outline: as §1

201T = test system: 201T
Outline: as §1

NCI-H1563 = test system: NCI-H1563
Outline: as §1

NCI-H661 = test system: NCI-H661
Outline: as §1

NCI-H1915 = test system: NCI-H1915
Outline: as §1

HCC-15 = test system: HCC-15
Outline: as §1

HOP-62 = test system: HOP-62
Outline: as §1

NCI-H1993 = test system: NCI-H1993
Outline: as §1

COR-L 105 = test system: COR-L 105
Outline: as §1

HCC-78 = test system: HCC-78
Outline: as §1

LK-2 = test system: LK-2
Outline: as §1

BEN = test system: BEN
Outline: as §1

EKVX = test system: EKVX
Outline: as §1

Compound: Cc1cn(-c2cc(NC(=O)c3ccc(C)c(Nc4nccc(-c5cccnc5)n4)c3)cc(C(F)(F)F)c2)cn1 [Nilotinib] + COc1cccc2cc(-c3nc([C@H]4CC[C@H](C(=O)O)CC4)n4ncnc(N)c34)[nH]c12 [OSI-027] (partner 0.5 µM)
- relative viability (PC-14; first compound 0.001 µM): 0.611
- relative viability (PC-14; first compound 0.003162 µM): 1.03
- relative viability (PC-14; first compound 0.01 µM): 0.846
- relative viability (PC-14; first compound 0.03162 µM): 0.312
- relative viability (PC-14; first compound 0.1 µM): 0.254
- relative viability (HCC-366; first compound 0.001 µM): 0.644
- relative viability (HCC-366; first compound 0.003162 µM): 0.93
- relative viability (HCC-366; first compound 0.01 µM): 0.663
- relative viability (HCC-366; first compound 0.03162 µM): 0.203
- relative viability (HCC-366; first compound 0.1 µM): 0.147
- relative viability (NCI-H647; first compound 0.001 µM): 0.638
- relative viability (NCI-H647; first compound 0.003162 µM): 0.749
- relative viability (NCI-H647; first compound 0.01 µM): 0.762
- relative viability (NCI-H647; first compound 0.03162 µM): 0.355
- relative viability (NCI-H647; first compound 0.1 µM): 0.644
- relative viability (EMC-BAC-2; first compound 0.001 µM): 0.348
- relative viability (EMC-BAC-2; first compound 0.003162 µM): 0.387
- relative viability (EMC-BAC-2; first compound 0.01 µM): 0.426
- relative viability (EMC-BAC-2; first compound 0.03162 µM): 0.345
- relative viability (EMC-BAC-2; first compound 0.1 µM): 0.354
- relative viability (NCI-H460; first compound 0.001 µM): 0.367
- relative viability (NCI-H460; first compound 0.003162 µM): 0.2
- relative viability (NCI-H460; first compound 0.01 µM): 0.327
- relative viability (NCI-H460; first compound 0.03162 µM): 0.255
- relative viability (NCI-H460; first compound 0.1 µM): 0.0921
- relative viability (NCI-H522; first compound 0.001 µM): 0.67
- relative viability (NCI-H522; first compound 0.003162 µM): 0.648
- relative viability (NCI-H522; first compound 0.01 µM): 0.754
- relative viability (NCI-H522; first compound 0.03162 µM): 0.665
- relative viability (NCI-H522; first compound 0.1 µM): 0.61
- relative viability (A-427; first compound 0.001 µM): 0.369
- relative viability (A-427; first compound 0.003162 µM): 0.456
- relative viability (A-427; first compound 0.01 µM): 0.44
- relative viability (A-427; first compound 0.03162 µM): 0.297
- relative viability (A-427; first compound 0.1 µM): 0.154
- relative viability (NCI-H2405; first compound 0.001 µM): 0.594
- relative viability (NCI-H2405; first compound 0.003162 µM): 0.617
- relative viability (NCI-H2405; first compound 0.01 µM): 0.568
- relative viability (NCI-H2405; first compound 0.03162 µM): 0.609
- relative viability (NCI-H2405; first compound 0.1 µM): 0.432
- relative viability (NCI-H1734; first compound 0.001 µM): 0.57
- relative viability (NCI-H1734; first compound 0.003162 µM): 0.595
- relative viability (NCI-H1734; first compound 0.01 µM): 0.64
- relative viability (NCI-H1734; first compound 0.03162 µM): 0.435
- relative viability (NCI-H1734; first compound 0.1 µM): 0.261
- relative viability (SK-MES-1; first compound 0.001 µM): 0.474
- relative viability (SK-MES-1; first compound 0.003162 µM): 0.544
- relative viability (SK-MES-1; first compound 0.01 µM): 0.662
- relative viability (SK-MES-1; first compound 0.03162 µM): 0.342
- relative viability (SK-MES-1; first compound 0.1 µM): 0.327
- relative viability (COR-L23; first compound 0.001 µM): 0.622
- relative viability (COR-L23; first compound 0.003162 µM): 0.957
- relative viability (COR-L23; first compound 0.01 µM): 0.92
- relative viability (COR-L23; first compound 0.03162 µM): 0.462
- relative viability (COR-L23; first compound 0.1 µM): 0.596
- relative viability (201T; first compound 0.001 µM): 0.734
- relative viability (201T; first compound 0.003162 µM): 0.666
- relative viability (201T; first compound 0.01 µM): 0.77
- relative viability (201T; first compound 0.03162 µM): 0.317
- relative viability (201T; first compound 0.1 µM): 0.667
- relative viability (NCI-H1563; first compound 0.001 µM): 0.72
- relative viability (NCI-H1563; first compound 0.003162 µM): 0.731
- relative viability (NCI-H1563; first compound 0.01 µM): 0.681
- relative viability (NCI-H1563; first compound 0.03162 µM): 0.74
- relative viability (NCI-H1563; first compound 0.1 µM): 0.666
- relative viability (NCI-H661; first compound 0.001 µM): 0.672
- relative viability (NCI-H661; first compound 0.003162 µM): 0.69
- relative viability (NCI-H661; first compound 0.03162 µM): 0.538
- relative viability (NCI-H661; first compound 0.1 µM): 0.634
- relative viability (NCI-H1915; first compound 0.001 µM): 0.552
- relative viability (NCI-H1915; first compound 0.003162 µM): 0.659
- relative viability (NCI-H1915; first compound 0.01 µM): 0.61
- relative viability (NCI-H1915; first compound 0.03162 µM): 0.567
- relative viability (NCI-H1915; first compound 0.1 µM): 0.338
- relative viability (HCC-15; first compound 0.001 µM): 0.562
- relative viability (HCC-15; first compound 0.003162 µM): 0.778
- relative viability (HCC-15; first compound 0.01 µM): 0.775
- relative viability (HCC-15; first compound 0.03162 µM): 0.435
- relative viability (HCC-15; first compound 0.1 µM): 0.306
- relative viability (HOP-62; first compound 0.001 µM): 0.699
- relative viability (HOP-62; first compound 0.003162 µM): 0.831
- relative viability (HOP-62; first compound 0.01 µM): 0.909
- relative viability (HOP-62; first compound 0.03162 µM): 0.581
- relative viability (HOP-62; first compound 0.1 µM): 0.559
- relative viability (NCI-H1993; first compound 0.001 µM): 0.547
- relative viability (NCI-H1993; first compound 0.003162 µM): 0.551
- relative viability (NCI-H1993; first compound 0.01 µM): 0.536
- relative viability (NCI-H1993; first compound 0.03162 µM): 0.487
- relative viability (NCI-H1993; first compound 0.1 µM): 0.562
- relative viability (COR-L 105; first compound 0.001 µM): 0.831
- relative viability (COR-L 105; first compound 0.003162 µM): 0.683
- relative viability (COR-L 105; first compound 0.01 µM): 0.741
- relative viability (COR-L 105; first compound 0.03162 µM): 0.577
- relative viability (COR-L 105; first compound 0.1 µM): 0.586
- relative viability (HCC-78; first compound 0.001 µM): 0.444
- relative viability (HCC-78; first compound 0.003162 µM): 0.368
- relative viability (HCC-78; first compound 0.01 µM): 0.352
- relative viability (HCC-78; first compound 0.03162 µM): 0.373
- relative viability (HCC-78; first compound 0.1 µM): 0.403
- relative viability (LK-2; first compound 0.001 µM): 0.209
- relative viability (LK-2; first compound 0.003162 µM): 0.174
- relative viability (LK-2; first compound 0.01 µM): 0.184
- relative viability (LK-2; first compound 0.03162 µM): 0.178
- relative viability (LK-2; first compound 0.1 µM): 0.187
- relative viability (BEN; first compound 0.001 µM): 0.295
- relative viability (BEN; first compound 0.003162 µM): 0.285
- relative viability (BEN; first compound 0.01 µM): 0.348
- relative viability (BEN; first compound 0.03162 µM): 0.283
- relative viability (BEN; first compound 0.1 µM): 0.277
- relative viability (EKVX; first compound 0.001 µM): 0.541
- relative viability (EKVX; first compound 0.003162 µM): 0.719
- relative viability (EKVX; first compound 0.01 µM): 0.904
- relative viability (EKVX; first compound 0.03162 µM): 0.665
- relative viability (EKVX; first compound 0.1 µM): 0.671
